According to ChEMBL document CHEMBL4028801, “A multifactorial approach to hepatobiliary transporter assessment enables improved therapeutic compound development” (Toxicol Sci, 2013):

Assays:
Bile salt export pump = Bile salt export pump (Homo sapiens, UniProt O95342); assay: Inhibition of human BSEP overexpressed in Sf9 cell membrane vesicles assessed as uptake of [3H]-taurocholate in presence of ATP measured after 15 to 20 mins by membrane vesicle transport assay; format: ADME, cell-based
[1] = biological target: ATP-binding cassette sub-family C member 2 (Homo sapiens, UniProt Q92887); assay: Inhibition of human MRP2 overexpressed in Sf9 cell membrane vesicles assessed as uptake of [3H]-estradiol-17beta-D-glucuronide in presence of ATP and GSH measured after 20 mins by membrane vesicle transport assay
Chain of ATP-binding cassette sub-family C member 2 (Q92887 whole entry): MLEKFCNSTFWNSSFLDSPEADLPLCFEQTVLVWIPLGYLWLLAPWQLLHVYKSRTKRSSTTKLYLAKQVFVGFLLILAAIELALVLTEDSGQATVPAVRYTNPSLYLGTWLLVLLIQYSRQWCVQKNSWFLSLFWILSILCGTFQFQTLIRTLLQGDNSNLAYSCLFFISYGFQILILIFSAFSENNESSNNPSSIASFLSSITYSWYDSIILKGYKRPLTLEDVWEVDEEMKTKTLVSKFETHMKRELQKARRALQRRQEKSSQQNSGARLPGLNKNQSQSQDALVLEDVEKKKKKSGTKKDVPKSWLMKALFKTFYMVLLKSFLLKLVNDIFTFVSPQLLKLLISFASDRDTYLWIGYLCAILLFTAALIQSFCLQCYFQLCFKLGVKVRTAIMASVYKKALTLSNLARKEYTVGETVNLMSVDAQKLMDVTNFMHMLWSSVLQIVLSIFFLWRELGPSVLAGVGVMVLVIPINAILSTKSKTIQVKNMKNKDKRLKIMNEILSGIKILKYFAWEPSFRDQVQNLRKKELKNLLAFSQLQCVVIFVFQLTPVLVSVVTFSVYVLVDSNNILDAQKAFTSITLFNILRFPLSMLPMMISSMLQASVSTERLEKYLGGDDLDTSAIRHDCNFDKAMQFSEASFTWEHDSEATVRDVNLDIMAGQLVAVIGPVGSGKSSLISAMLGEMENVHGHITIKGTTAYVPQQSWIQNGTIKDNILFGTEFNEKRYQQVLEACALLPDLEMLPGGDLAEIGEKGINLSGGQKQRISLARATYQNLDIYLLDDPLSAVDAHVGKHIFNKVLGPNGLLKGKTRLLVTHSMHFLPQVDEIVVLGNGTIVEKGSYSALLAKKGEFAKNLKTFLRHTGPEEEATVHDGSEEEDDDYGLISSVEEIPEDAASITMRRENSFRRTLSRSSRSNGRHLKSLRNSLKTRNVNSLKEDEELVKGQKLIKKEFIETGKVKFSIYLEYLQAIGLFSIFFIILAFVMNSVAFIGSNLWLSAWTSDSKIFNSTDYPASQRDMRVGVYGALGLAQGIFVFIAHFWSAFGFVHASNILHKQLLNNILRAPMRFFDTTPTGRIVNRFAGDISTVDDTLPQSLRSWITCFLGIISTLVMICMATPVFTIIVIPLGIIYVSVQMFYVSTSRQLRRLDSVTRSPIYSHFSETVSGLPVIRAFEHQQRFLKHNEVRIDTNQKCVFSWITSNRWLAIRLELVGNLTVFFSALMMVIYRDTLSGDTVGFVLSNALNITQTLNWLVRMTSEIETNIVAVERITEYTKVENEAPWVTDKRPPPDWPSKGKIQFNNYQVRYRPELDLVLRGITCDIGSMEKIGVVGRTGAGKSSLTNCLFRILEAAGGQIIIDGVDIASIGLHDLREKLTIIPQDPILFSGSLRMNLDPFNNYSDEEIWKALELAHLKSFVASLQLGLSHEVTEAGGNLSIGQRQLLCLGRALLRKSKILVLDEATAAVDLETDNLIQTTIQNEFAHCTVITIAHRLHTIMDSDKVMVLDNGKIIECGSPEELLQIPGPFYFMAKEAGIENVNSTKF

[2] = biological target: ATP-binding cassette sub-family C member 3 (Homo sapiens, UniProt O15438); assay: Inhibition of human MRP3 overexpressed in Sf9 insect cell membrane vesicles assessed as uptake of [3H]-estradiol-17beta-D-glucuronide in presence of ATP and GSH measured after 10 mins by membrane vesicle transport assay; format: ADME, cell-based
Chain of ATP-binding cassette sub-family C member 3 (O15438 whole entry): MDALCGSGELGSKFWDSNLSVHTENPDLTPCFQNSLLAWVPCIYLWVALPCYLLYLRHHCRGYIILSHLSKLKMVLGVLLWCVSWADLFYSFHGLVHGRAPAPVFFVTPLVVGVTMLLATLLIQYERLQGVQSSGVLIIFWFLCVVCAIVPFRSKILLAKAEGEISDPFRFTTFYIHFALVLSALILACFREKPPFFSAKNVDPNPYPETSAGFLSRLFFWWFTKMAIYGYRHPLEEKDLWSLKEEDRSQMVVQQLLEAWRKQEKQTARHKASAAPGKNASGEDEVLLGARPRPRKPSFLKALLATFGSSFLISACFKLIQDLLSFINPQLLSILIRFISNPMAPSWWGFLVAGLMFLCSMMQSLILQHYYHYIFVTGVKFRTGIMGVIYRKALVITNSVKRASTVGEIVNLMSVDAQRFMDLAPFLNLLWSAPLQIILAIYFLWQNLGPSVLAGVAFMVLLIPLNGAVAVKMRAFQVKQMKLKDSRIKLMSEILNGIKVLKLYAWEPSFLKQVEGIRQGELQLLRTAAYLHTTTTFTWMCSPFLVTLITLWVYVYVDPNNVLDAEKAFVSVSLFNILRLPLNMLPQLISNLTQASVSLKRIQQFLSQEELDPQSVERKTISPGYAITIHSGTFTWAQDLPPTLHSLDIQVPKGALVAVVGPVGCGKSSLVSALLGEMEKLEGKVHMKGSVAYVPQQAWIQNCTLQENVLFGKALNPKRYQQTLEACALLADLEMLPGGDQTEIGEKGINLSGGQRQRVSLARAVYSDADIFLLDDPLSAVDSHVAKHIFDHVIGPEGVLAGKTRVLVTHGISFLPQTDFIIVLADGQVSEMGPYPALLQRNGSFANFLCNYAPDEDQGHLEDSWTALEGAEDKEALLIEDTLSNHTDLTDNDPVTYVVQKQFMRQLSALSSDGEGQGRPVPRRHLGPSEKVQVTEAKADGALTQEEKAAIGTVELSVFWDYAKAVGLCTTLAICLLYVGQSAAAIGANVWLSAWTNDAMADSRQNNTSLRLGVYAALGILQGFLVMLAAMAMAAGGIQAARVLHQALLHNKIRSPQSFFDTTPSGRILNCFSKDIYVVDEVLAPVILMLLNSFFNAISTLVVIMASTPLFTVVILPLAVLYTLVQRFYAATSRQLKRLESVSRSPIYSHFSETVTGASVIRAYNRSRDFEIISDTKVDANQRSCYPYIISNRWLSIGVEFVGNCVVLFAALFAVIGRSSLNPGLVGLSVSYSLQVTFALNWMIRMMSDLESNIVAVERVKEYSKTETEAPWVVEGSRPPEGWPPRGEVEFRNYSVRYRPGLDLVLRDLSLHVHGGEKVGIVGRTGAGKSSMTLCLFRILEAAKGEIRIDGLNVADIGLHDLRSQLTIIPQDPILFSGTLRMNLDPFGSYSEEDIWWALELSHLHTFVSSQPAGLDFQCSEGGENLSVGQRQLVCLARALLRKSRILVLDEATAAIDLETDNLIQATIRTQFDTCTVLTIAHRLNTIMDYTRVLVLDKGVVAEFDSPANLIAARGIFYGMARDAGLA

[3] = biological target: T1, ATP-binding cassette sub-family C member 4 (Homo sapiens, UniProt O15439); assay: Inhibition of human MRP4 overexpressed in Sf9 cell membrane vesicles assessed as uptake of [3H]-estradiol-17beta-D-glucuronide in presence of ATP and GSH measured after 20 mins by membrane vesicle transport assay; format: ADME, cell-based
T1 sequence (O15439 whole entry): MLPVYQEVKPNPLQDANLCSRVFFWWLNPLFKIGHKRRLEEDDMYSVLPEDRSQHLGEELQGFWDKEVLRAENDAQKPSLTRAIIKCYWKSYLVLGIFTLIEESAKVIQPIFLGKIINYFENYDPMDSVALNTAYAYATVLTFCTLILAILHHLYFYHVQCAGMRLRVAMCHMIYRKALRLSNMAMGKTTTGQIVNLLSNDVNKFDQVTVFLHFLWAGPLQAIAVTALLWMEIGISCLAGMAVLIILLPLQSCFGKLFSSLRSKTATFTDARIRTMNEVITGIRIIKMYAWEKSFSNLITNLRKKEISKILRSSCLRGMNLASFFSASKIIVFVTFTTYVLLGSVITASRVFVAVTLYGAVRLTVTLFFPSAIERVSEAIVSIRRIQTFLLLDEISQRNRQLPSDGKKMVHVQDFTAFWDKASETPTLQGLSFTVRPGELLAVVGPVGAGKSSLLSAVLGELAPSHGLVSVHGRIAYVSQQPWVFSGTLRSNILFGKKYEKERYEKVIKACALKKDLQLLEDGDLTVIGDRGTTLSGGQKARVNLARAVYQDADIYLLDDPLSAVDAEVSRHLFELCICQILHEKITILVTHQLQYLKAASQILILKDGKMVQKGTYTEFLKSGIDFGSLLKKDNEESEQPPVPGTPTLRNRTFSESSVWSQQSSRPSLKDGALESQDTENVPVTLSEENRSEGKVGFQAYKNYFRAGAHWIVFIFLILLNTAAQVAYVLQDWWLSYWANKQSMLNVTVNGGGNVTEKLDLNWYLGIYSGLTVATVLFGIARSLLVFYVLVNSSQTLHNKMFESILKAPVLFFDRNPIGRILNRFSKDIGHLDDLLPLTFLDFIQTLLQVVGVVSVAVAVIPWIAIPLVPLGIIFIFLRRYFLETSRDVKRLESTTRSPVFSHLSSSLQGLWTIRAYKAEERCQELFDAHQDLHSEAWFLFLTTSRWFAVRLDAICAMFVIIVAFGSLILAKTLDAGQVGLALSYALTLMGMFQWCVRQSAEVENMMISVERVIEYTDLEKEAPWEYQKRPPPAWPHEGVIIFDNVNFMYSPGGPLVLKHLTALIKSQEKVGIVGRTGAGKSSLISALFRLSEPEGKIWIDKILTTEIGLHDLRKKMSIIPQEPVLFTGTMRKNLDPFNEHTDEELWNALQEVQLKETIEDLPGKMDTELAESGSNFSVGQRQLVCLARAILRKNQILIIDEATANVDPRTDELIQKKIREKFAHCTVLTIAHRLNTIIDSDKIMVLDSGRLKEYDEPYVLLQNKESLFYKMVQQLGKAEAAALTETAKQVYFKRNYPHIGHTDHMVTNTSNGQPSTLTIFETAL

[4] = AUC in human at 50 mg, po QD after 24 hrs; format: ADME, organism-based; parameters: dose 50 mg, time < 24 hr, route oral; settings: in vivo
[5] = Drug concentration at steady state in human at 50 mg, po QD after 24 hrs; format: ADME, organism-based; settings: in vivo, read-out: Css
[6] = Ratio of drug concentration at steady state in human at 50 mg, po QD after 24 hrs to IC50 for human BSEP overexpressed in Sf9 insect cells; format: ADME, organism-based; settings: in vivo
[7] = Ratio of drug concentration at steady state in human at 50 mg, po QD after 24 hrs to IC50 for human MRP2 overexpressed in Sf9 insect cells; format: ADME, organism-based; settings: in vivo
[8] = Ratio of drug concentration at steady state in human at 50 mg, po QD after 24 hrs to IC50 for human MRP3 overexpressed in Sf9 insect cells; format: ADME, organism-based; settings: in vivo
[9] = Ratio of drug concentration at steady state in human at 50 mg, po QD after 24 hrs to IC50 for human MRP4 overexpressed in Sf9 insect cells; format: ADME, organism-based; settings: in vivo
[10] = AUC in human at 40 to 80 mg, po QD after 24 hrs; format: ADME, organism-based; settings: in vivo
[11] = Drug concentration at steady state in human at 40 to 80 mg, po QD after 24 hrs; format: ADME, organism-based; settings: in vivo, read-out: Css
[12] = Ratio of drug concentration at steady state in human at 40 to 80 mg, po QD after 24 hrs to IC50 for human BSEP overexpressed in Sf9 insect cells; format: ADME, organism-based; settings: in vivo
[13] = Ratio of drug concentration at steady state in human at 40 to 80 mg, po QD after 24 hrs to IC50 for human MRP4 overexpressed in Sf9 insect cells; format: ADME, organism-based; settings: in vivo
Homo sapiens [14] = assay: Drug concentration at steady state in human at 25 to 50 mg, po TID after 8 hrs; format: ADME, organism-based; settings: in vivo
[15] = AUC in human at 250 to 500 mg, po QD after 24 hrs; format: ADME, organism-based; settings: in vivo
[16] = AUC in human at 10 to 20 mg, po BID after 12 hrs; format: ADME, organism-based; settings: in vivo
[17] = Drug concentration at steady state in human at 10 to 20 mg, po BID after 12 hrs; format: ADME, organism-based; settings: in vivo, read-out: Css
[18] = Ratio of drug concentration at steady state in human at 10 to 20 mg, po BID after 12 hrs to IC50 for human BSEP overexpressed in Sf9 insect cells; format: ADME, organism-based; settings: in vivo
[19] = Ratio of drug concentration at steady state in human at 10 to 20 mg, po BID after 12 hrs to IC50 for human MRP2 overexpressed in Sf9 insect cells; format: ADME, organism-based; settings: in vivo
[20] = Ratio of drug concentration at steady state in human at 10 to 20 mg, po BID after 12 hrs to IC50 for human MRP4 overexpressed in Sf9 insect cells; format: ADME, organism-based; settings: in vivo
[21] = AUC in human at 100 mg, po QD after 24 hrs; format: ADME, organism-based; parameters: time < 24 hr, dose 100 mg, route oral; settings: in vivo
[22] = Drug concentration at steady state in human at 100 mg, po QD after 24 hrs; format: ADME, organism-based; settings: in vivo, read-out: Css
Homo sapiens [23] = assay: Ratio of drug concentration at steady state in human at 100 mg, po after 24 hrs to IC50 for human BSEP overexpressed in Sf9 insect cells; format: ADME, organism-based; settings: in vivo
[24] = AUC in human at 50 to 100 mg, po QD after 24 hrs; format: ADME, organism-based; settings: in vivo
[25] = Drug concentration at steady state in human at 50 to 100 mg, po QD after 24 hrs; format: ADME, organism-based; settings: in vivo, read-out: Css
Homo sapiens [26] = assay: Ratio of drug concentration at steady state in human at 50 to 100 mg, po after 24 hrs to IC50 for human BSEP overexpressed in Sf9 insect cells; format: ADME, organism-based; settings: in vivo
Homo sapiens [27] = assay: Ratio of drug concentration at steady state in human at 50 to 100 mg, po after 24 hrs to IC50 for human MRP4 overexpressed in Sf9 insect cells; format: ADME, organism-based; settings: in vivo
[28] = AUC in patient with possible depletion of intravascular volume at 25 mg, po QD after 24 hrs; format: ADME, organism-based; parameters: time < 24 hr, dose 25 mg, route oral; settings: human, in vivo
[29] = Drug concentration at steady state in patient with possible depletion of intravascular volume at 25 mg, po QD after 24 hrs; format: ADME, organism-based; settings: human, in vivo, read-out: Css
Homo sapiens [30] = assay: Ratio of drug concentration at steady state in patient with possible depletion of intravascular volume at 25 mg, po QD after 24 hrs to IC50 for human BSEP overexpressed in Sf9 insect cells; format: ADME, organism-based; settings: in vivo
Homo sapiens [31] = assay: Ratio of drug concentration at steady state in patient with possible depletion of intravascular volume at 25 mg, po QD after 24 hrs to IC50 for human MRP4 overexpressed in Sf9 insect cells; format: ADME, organism-based; settings: in vivo

Chain of Bile salt export pump (O95342 whole entry): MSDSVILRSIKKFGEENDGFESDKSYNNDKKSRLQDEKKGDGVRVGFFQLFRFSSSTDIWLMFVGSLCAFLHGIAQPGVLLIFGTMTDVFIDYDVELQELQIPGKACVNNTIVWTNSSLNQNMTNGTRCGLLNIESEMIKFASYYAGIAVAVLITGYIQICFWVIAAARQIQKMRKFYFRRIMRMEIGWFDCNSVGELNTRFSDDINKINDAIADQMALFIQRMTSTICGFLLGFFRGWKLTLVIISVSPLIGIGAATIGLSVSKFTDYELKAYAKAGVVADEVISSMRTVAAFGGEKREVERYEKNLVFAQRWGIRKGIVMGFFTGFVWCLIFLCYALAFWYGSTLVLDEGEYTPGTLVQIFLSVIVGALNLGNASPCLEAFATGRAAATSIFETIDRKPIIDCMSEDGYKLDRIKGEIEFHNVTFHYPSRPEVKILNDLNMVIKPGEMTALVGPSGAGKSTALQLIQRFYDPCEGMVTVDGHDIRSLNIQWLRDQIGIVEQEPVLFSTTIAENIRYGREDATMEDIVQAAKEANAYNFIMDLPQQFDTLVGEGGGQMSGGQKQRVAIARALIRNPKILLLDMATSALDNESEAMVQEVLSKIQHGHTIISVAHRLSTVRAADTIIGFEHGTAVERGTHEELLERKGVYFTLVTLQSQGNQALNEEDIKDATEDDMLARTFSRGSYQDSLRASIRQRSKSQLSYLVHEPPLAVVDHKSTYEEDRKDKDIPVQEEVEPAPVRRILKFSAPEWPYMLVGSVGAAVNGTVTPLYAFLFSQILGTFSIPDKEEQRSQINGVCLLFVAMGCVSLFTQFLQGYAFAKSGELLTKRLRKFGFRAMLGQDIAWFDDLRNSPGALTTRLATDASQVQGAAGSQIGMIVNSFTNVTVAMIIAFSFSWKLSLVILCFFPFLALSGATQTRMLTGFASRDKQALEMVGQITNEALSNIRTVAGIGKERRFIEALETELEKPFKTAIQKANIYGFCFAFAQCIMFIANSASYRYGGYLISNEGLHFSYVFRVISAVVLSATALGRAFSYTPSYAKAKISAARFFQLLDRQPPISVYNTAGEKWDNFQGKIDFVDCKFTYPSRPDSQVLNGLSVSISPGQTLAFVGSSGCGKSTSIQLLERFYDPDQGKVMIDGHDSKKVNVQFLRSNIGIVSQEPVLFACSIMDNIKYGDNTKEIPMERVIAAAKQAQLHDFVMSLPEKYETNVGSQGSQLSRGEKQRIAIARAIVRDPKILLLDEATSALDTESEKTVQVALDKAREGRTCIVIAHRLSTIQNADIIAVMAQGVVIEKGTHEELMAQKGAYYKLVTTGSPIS

SMILES: CC(/C=C1\SC(=S)N(CC(=O)O)C1=O)=C\c1ccccc1
- IC50 (Bile salt export pump): 36.8 µM
- IC50 [1]: 84.4 µM
- IC50 [2]: 45.8 µM
- IC50 [3]: 6.5 µM
- AUC at 24 h [4]: 20 µM·h
- concentration at 24 h [5]: 835 nM
- Ratio [6]: 0.01
- Ratio [7]: 0.01
- Ratio [8]: 0.018
- Ratio [9]: 0.128

SMILES: Cc1nc(-c2ccc(OCC(C)C)c(C#N)c2)sc1C(=O)O [FEBUXOSTAT]
- IC50 (Bile salt export pump): 42.9 µM
- IC50 [1]: > 133 µM
- IC50 [2]: > 133 µM
- IC50 [3]: 1.9 µM
- AUC at 24 h [10]: 25.1 µM·h
- concentration at 24 h [11]: 1050 nM
- Ratio [12]: 0.024
- Ratio [13]: 0.55

SMILES: COc1ccc2c(c1)c(CC(=O)O)c(C)n2C(=O)c1ccc(Cl)cc1 [INDOMETHACIN]
- IC50 [2]: 66 µM
- Css (Homo sapiens [14]): 1118 nM

SMILES: COc1cc2ncnc(Nc3ccc(F)c(Cl)c3)c2cc1OCCCN1CCOCC1 [GEFITINIB]
- IC50 [1]: > 133 µM
- IC50 [2]: > 133 µM
- AUC at 24 h [15]: 5.38 µM·h

SMILES: COc1cc(C(=O)NS(=O)(=O)c2ccccc2C)ccc1Cc1cn(C)c2ccc(NC(=O)OC3CCCC3)cc12 [ZAFIRLUKAST]
- IC50 (Bile salt export pump): 11.1 µM
- IC50 [1]: 58.8 µM
- IC50 [2]: > 133 µM
- IC50 [3]: 12.1 µM
- AUC at 12 h [16]: 3.6 µM·h
- concentration at 12 h [17]: 300 nM
- Ratio [18]: 0.027
- Ratio [19]: 0.005
- Ratio [20]: 0.025

SMILES: COCC(=O)O[C@]1(CCN(C)CCCc2nc3ccccc3[nH]2)CCc2cc(F)ccc2[C@@H]1C(C)C.Cl
- IC50 (Bile salt export pump): 43.8 µM
- IC50 [1]: > 133 µM
- IC50 [2]: > 133 µM
- IC50 [3]: > 133 µM
- AUC at 24 h [21]: 17.6 µM·h
- concentration at 24 h [22]: 735 nM
- Ratio (Homo sapiens [23]): 0.017

SMILES: CCCCc1nc(Cl)c(CO)n1Cc1ccc(-c2ccccc2-c2nnn[n-]2)cc1.[K+] [LOSARTAN POTASSIUM]
- IC50 (Bile salt export pump): 8.53 µM
- IC50 [2]: > 133 µM
- IC50 [3]: 34.1 µM
- AUC at 24 h [24]: 2.42 µM·h
- concentration at 24 h [25]: 101 nM
- Ratio (Homo sapiens [26]): 0.012
- Ratio (Homo sapiens [27]): 0.003
- AUC at 24 h [28]: 2.42 µM·h
- concentration at 24 h [29]: 101 nM
- Ratio (Homo sapiens [30]): 0.012
- Ratio (Homo sapiens [31]): 0.003
